The supplement of paper PMC8149375

Experiments:
Conditions in all cases: treatment: drug + dasatinib (fixed dose, not stated); 5 days
CAKI-1 [1] = test: minimum viability across doses, drug + dasatinib, relative to DMSO (fraction); higher = less growth inhibition
Protocol: (§1)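 Primary HTS combination arm: 8 RCC cell lines treated with 8 doses (up to 10 uM) of each library drug plus a fixed dose of dasatinib (dose not stated) for 5 days; viability read by CellTiter-Glo and normalised to DMSO. GI50 was fitted with XLfit, AUC is the area under the dose-response curve, and minimum viability is the lowest fraction of DMSO viability across doses.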

ACHN [2] = test: as above
Protocol: as §1

786-O [3] = test: as above
Protocol: as §1

769-P [4] = test: as above
Protocol: as §1

UO-31 [5] = test: as above
Protocol: as §1

SN12C [6] = test: as above
Protocol: as §1

TK-10 [7] = test: as above
Protocol: as §1

A498 [8] = test: as above
Protocol: as §1

CAKI-1 [9] = test: AUC of dose-response viability curve, drug + dasatinib, normalised to DMSO (arbitrary (AUC of normalised viability)); higher = less growth inhibition
Protocol: as §1

ACHN [10] = test: as above
Protocol: as §1

786-O [11] = test: as above
Protocol: as §1

769-P [12] = test: as above
Protocol: as §1

UO-31 [13] = test: as above
Protocol: as §1

SN12C [14] = test: as above
Protocol: as §1

TK-10 [15] = test: as above
Protocol: as §1

A498 [16] = test: as above
Protocol: as §1

CAKI-1 [17] = test: GI50 of drug in presence of dasatinib; higher = less potent
Protocol: as §1

ACHN [18] = test: as above
Protocol: as §1

786-O [19] = test: as above
Protocol: as §1

769-P [20] = test: as above
Protocol: as §1

UO-31 [21] = test: as above
Protocol: as §1

SN12C [22] = test: as above
Protocol: as §1

TK-10 [23] = test: as above
Protocol: as §1

A498 [24] = test: as above
Protocol: as §1

Compound | minimum viability across doses (CAKI-1 [1]) | minimum viability across doses (ACHN [2]) | minimum viability across doses (786-O [3]) | minimum viability across doses (769-P [4]) | minimum viability across doses (UO-31 [5]) | minimum viability across doses (SN12C [6]) | minimum viability across doses (TK-10 [7]) | minimum viability across doses (A498 [8]) | AUC of dose-response viability curve (CAKI-1 [9]) | AUC of dose-response viability curve (ACHN [10]) | AUC of dose-response viability curve (786-O [11]) | AUC of dose-response viability curve (769-P [12]) | AUC of dose-response viability curve (UO-31 [13]) | AUC of dose-response viability curve (SN12C [14]) | AUC of dose-response viability curve (TK-10 [15]) | AUC of dose-response viability curve (A498 [16]) | GI50 of drug (CAKI-1 [17]) [nM] | GI50 of drug (ACHN [18]) [nM] | GI50 of drug (786-O [19]) [nM] | GI50 of drug (769-P [20]) [nM] | GI50 of drug (UO-31 [21]) [nM] | GI50 of drug (SN12C [22]) [nM] | GI50 of drug (TK-10 [23]) [nM] | GI50 of drug (A498 [24]) [nM]
CN1CCN(C2CCN(C(=O)Nc3cc(Oc4ccc(NC(=O)C5(C(=O)Nc6ccc(F)cc6)CC5)c(F)c4)ccn3)CC2)CC1 [Golvatinib (E7050)] + Cc1nc(Nc2ncc(C(=O)Nc3c(C)cccc3Cl)s2)cc(N2CCN(CCO)CC2)n1 [dasatinib] | 0.0248 | 0.0563 | 0.0302 | 0.131 | 0.0151 | 0.191 | 0.154 | 0.335 | 1.89 | 1.63 | 1.93 | 2.3 | 4.48 | 2.19 | 2.09 | 3.93 | 541 | 368 | 434 | 3670 | 3090 | 1620 | 886 | 9520
CCOC(=O)C1=C(N)Oc2ccc(Br)cc2[C@H]1[C@H](C#N)C(=O)OCC [HA14-1] + Cc1nc(Nc2ncc(C(=O)Nc3c(C)cccc3Cl)s2)cc(N2CCN(CCO)CC2)n1 [dasatinib] | 0.628 | 0.579 | 0.624 | 0.737 | 0.952 | 0.69 | 0.725 | 0.797 | 2.35 | 2.17 | 2.65 | 2.77 | 3.92 | 2.54 | 2.71 | 3.14 | > 10000 | > 10000 | > 10000 | > 10000 | > 10000 | > 10000 | > 10000 | > 10000
COc1ccc(S(=O)(=O)N(C(C)=O)c2ccccc2/C=C/c2cc[n+]([O-])cc2)cc1 [HMN-214] + Cc1nc(Nc2ncc(C(=O)Nc3c(C)cccc3Cl)s2)cc(N2CCN(CCO)CC2)n1 [dasatinib] | 0.121 | 0.102 | 0.00332 | 0.0839 | 0.00841 | 0.172 | 0.297 | 0.124 | 1.32 | 1.15 | 1.18 | 1.95 | 2.65 | 1.78 | 2.02 | 2.04 | 74.4 | 5.38 | 99.7 | 278 | 499 | 342 | 609 | 387
CCS(=O)(=O)Nc1ccc2c(c1)/C(=C(/Nc1ccc(CN3CCCCC3)cc1)c1ccccc1)C(=O)N2 [Hesperadin] + Cc1nc(Nc2ncc(C(=O)Nc3c(C)cccc3Cl)s2)cc(N2CCN(CCO)CC2)n1 [dasatinib] | 0.0323 | 0.00666 | 0.0121 | 0.0628 | 0.0118 | 0.00226 | 0.0643 | 0.109 | 1.15 | 1.18 | 1.2 | 1.86 | 2.5 | 1.26 | 2.17 | 2.05 | 45.5 | 14.7 | 46.6 | 327 | 357 | 82.6 | 713 | 441
O=C(Nc1cc(C(F)(F)F)cc(C(F)(F)F)c1)c1cc(Cl)ccc1O [IMD 0354] + Cc1nc(Nc2ncc(C(=O)Nc3c(C)cccc3Cl)s2)cc(N2CCN(CCO)CC2)n1 [dasatinib] | 0.0138 | 0.00153 | 0.00625 | 0.00617 | 0.0139 | 0.00339 | 0.07 | 0.0122 | 1.85 | 1.29 | 1.62 | 1.9 | 4.26 | 1.97 | 2.03 | 2.92 | 481 | 220 | 373 | 557 | 2030 | 1340 | 759 | 1700
CC(C)n1nc(-c2ccc3oc(N)nc3c2)c2c(N)ncnc21 [INK 128] + Cc1nc(Nc2ncc(C(=O)Nc3c(C)cccc3Cl)s2)cc(N2CCN(CCO)CC2)n1 [dasatinib] | 0.0244 | 0.0339 | 0.00403 | 0.0625 | 0.00639 | 0.0733 | 0.0156 | 0.0897 | 0.693 | 0.554 | 0.59 | 0.95 | 0.741 | 0.931 | 0.838 | 1.19 | 9.18 | 3.03 | 4.88 | 14.7 | 13.8 | 13.1 | 9.96 | 33.8
CS(=O)(=O)O.Cc1ccc(NC(=O)c2ccc(CN3CCN(C)CC3)cc2)cc1Nc1nccc(-c2cccnc2)n1 [Imatinib Mesylate] + Cc1nc(Nc2ncc(C(=O)Nc3c(C)cccc3Cl)s2)cc(N2CCN(CCO)CC2)n1 [dasatinib] | 0.603 | 0.595 | 0.584 | 0.562 | 0.683 | 0.688 | 0.666 | 0.945 | 2.36 | 2.48 | 2.69 | 2.34 | 3.49 | 2.49 | 2.85 | 3.53 | > 10000 | > 10000 | > 10000 | > 10000 | > 10000 | > 10000 | > 10000 | > 10000
